Source: patent US20250313546A1, “NUCLEIC ACID BINDERS” (UNIVERSITY OF STRATHCLYDE, priority 2022, published 2025)
Values after ≈ are worked out from the molar mass of the structure shown. Like-named read-outs stand apart in the source and are kept apart here.

How the values were obtained:
[1] = test system: Staphylococcus aureus (ATCC 43300); assay: Antibacterial MIC, broth microdilution (CLSI); assay type: cell-based; settings: Staphylococcus aureus, ATCC43300; read-out: MIC80 S. aureus
[2] = test system: Enterococcus faecalis (ATCC 51299); assay: Antibacterial MIC, broth microdilution (CLSI); assay type: cell-based; settings: Enterococcus faecalis, ATCC51299; read-out: MIC80 E. faecalis
[3] = test system: Escherichia coli (ATCC 25922); assay: Antibacterial MIC, broth microdilution (CLSI); assay type: cell-based; settings: Escherichia coli, ATCC25922; read-out: MIC80 E. coli
Aspergillus fumigatus = assay: Expanded set of filamentous fungi, MIC broth microdilution (CLSI); assay type: cell-based
Aspergillus flavus = assay: as above; assay type: cell-based; settings: MIC at 50% inhibition; for MIC50: Aspergillus flavus
Fusarium oxysporum = assay: as above; assay type: cell-based; settings: MIC at 50% inhibition
Fusarium solani = assay: as above; assay type: cell-based; settings: MIC at 50% inhibition
Scedosporium spp. = assay: as above; assay type: cell-based
Lomentospora prolificans = assay: as above; assay type: cell-based; settings: isolate S2, MIC at 50% inhibition
Paecilomyces variotii = assay: as above; assay type: cell-based; settings: isolate MYA-3630, MIC at 50% inhibition
Rhizopus arrhizus = assay: as above; assay type: cell-based
Blastomyces dermatitidis = assay: as above; assay type: cell-based
Candida parapsilosis = assay: Expanded set of yeasts, MIC broth microdilution (CLSI); assay type: cell-based; settings: MIC at 50% inhibition; for MIC50: Lodderomyces parapsilosis
C. krusei = assay: as above; assay type: cell-based; settings: Pichia kudriavzevii, ATCC6258; isolate ATCC 6258; MIC at 50% inhibition
C. albicans = assay: as above; assay type: cell-based; settings: MIC at 50% inhibition; for MIC50: Candida albicans
C. auris = assay: as above; assay type: cell-based; settings: MIC at 50% inhibition
C. glabrata = assay: as above; assay type: cell-based; settings: Nakaseomyces glabratus, MIC at 50% inhibition
C. guilliiermondii = assay: as above; assay type: cell-based; settings: MIC at 50% inhibition
[4] = test system: Genomic double stranded DNA (salmon); assay: Fluorescence intercalator displacement (FID) assay, SYBR-safe probe; settings: 20 μM compound, 30° C., lower % = stronger binding
In short: (§1)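 Probe displacement was measured at 30 °C in 1 mM phosphate pH 7.4 containing SybrSafe (12500-fold dilution), 3.76 ng/mL nucleic acid (salmon dsDNA or polyAU dsRNA) and 20 μM compound. Fluorescence loss is normalised between probe-only and probe-plus-nucleic-acid controls.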

[5] = test system: PolyAU double stranded RNA; assay: as above; settings: 20 μM compound, 30° C., lower % = stronger binding
In short: as §1

## CNC(=N)CCNC(=O)c1cc(NC(=O)c2cc(NC(=O)c3ccc(/C=C/c4cnc5ccccc5c4)cc3)cn2C)cn1C [Ia27, (E)-N-(3-imino-3-(methylamino)propyl)-1-methyl-4-(1-methyl-4-(4-(2-(quinolin-3-yl)vinyl)benzamido)-1H-pyrrole-2-carboxamido)-1H-pyrrole-2-carboxamide]
[1]
  MIC80: < 5 µM
[2]
  MIC80: < 5 µM
[3]
  MIC80: > 100 µM
Aspergillus fumigatus; isolate AF293, MIC at 50% inhibition
  MIC50: ≤ 1 µg/mL
Aspergillus fumigatus; isolate DI15-106, MIC at 50% inhibition
  MIC50: ≤ 1 µg/mL
Aspergillus fumigatus; isolate DI15-116, MIC at 50% inhibition
  MIC50: ≤ 1 µg/mL
Aspergillus fumigatus; isolate DI19-187, MIC at 50% inhibition
  MIC50: ≤ 1 µg/mL
Aspergillus fumigatus; isolate DI19-230, MIC at 50% inhibition
  MIC50: ≤ 1 µg/mL
Aspergillus fumigatus; isolate DI19-231, MIC at 50% inhibition
  MIC50: ≤ 1 µg/mL
Aspergillus fumigatus; isolate DI19-232, MIC at 50% inhibition
  MIC50: ≤ 1 µg/mL
Aspergillus fumigatus; isolate DI19-233, MIC at 50% inhibition
  MIC50: ≤ 1 µg/mL
Aspergillus fumigatus; isolate DI19-234, MIC at 50% inhibition
  MIC50: ≤ 1 µg/mL
Aspergillus fumigatus; isolate DI19-236, MIC at 50% inhibition
  MIC50: ≤ 1 µg/mL
Aspergillus fumigatus; isolate DI19-237, MIC at 50% inhibition
  MIC50: ≤ 1 µg/mL
Aspergillus fumigatus; isolate DI20-95, MIC at 50% inhibition
  MIC50: ≤ 1 µg/mL
Aspergillus fumigatus; isolate DI20-103, MIC at 50% inhibition
  MIC50: ≤ 1 µg/mL
Aspergillus flavus; ATCC204304, isolate ATCC 204304
  MIC50: ≤ 1 µg/mL
Aspergillus flavus; isolate Aflav2
  MIC50: ≤ 1 µg/mL
Aspergillus flavus; isolate Aflav3
  MIC50 Aspergillus flavus: *** (*** means MIC50 <= 1 μg/mL)
Fusarium oxysporum; Fusarium oxysporum, isolate F2
  MIC50: ≤ 1 µg/mL
Fusarium oxysporum; isolate F3
  MIC50 Fusarium oxysporum: *** (*** means MIC50 <= 1 μg/mL)
Fusarium solani; Fusarium solani, isolate F4
  MIC50: ≤ 1 µg/mL
Fusarium solani; isolate DI19-284
  MIC50 Fusarium solani: *** (*** means MIC50 <= 1 μg/mL)
Scedosporium spp.; isolate S1, MIC at 50% inhibition
  MIC50: ≤ 1 µg/mL
Scedosporium spp.; isolate S3, MIC at 50% inhibition
  MIC50: ≤ 1 µg/mL
Lomentospora prolificans
  MIC50: ≤ 1 µg/mL
Paecilomyces variotii
  MIC50: 1 to 8 µg/mL (≈ 1.66 to 13.3 µM)
Rhizopus arrhizus; isolate 99-880, MIC at 50% inhibition
  MIC50: ≤ 1 µg/mL
Rhizopus arrhizus; isolate 99-892, MIC at 50% inhibition
  MIC50: ≤ 1 µg/mL
Rhizopus arrhizus; isolate RA3, MIC at 50% inhibition
  MIC50: 1 to 8 µg/mL (≈ 1.66 to 13.3 µM)
Blastomyces dermatitidis; isolate BD1, MIC at 50% inhibition
  MIC50: 1 to 8 µg/mL (≈ 1.66 to 13.3 µM)
Blastomyces dermatitidis; isolate BD2, MIC at 50% inhibition
  MIC50: 1 to 8 µg/mL (≈ 1.66 to 13.3 µM)
Blastomyces dermatitidis; isolate BD3, MIC at 50% inhibition
  MIC50: 8 to 32 µg/mL (≈ 13.3 to 53.1 µM)
Candida parapsilosis; ATCC22019, isolate ATCC 22019, read-out: MIC50 Candida parapsilosis
  MIC50: 1 to 8 µg/mL (≈ 1.66 to 13.3 µM)
Candida parapsilosis; isolate CP1, read-out: MIC50 C. parapsilosis
  MIC50: 1 to 8 µg/mL (≈ 1.66 to 13.3 µM)
Candida parapsilosis; isolate CP2
  MIC50 C. parapsilosis: ** (** means 1 μg/mL < MIC50 <= 8 μg/mL)
Candida parapsilosis; isolate CP3
  MIC50 C. parapsilosis: ** (** means 1 μg/mL < MIC50 <= 8 μg/mL)
C. krusei
  MIC50: ≤ 1 µg/mL
C. albicans; isolate CA3
  MIC50: 1 to 8 µg/mL (≈ 1.66 to 13.3 µM)
C. albicans; isolate SC5314
  MIC50: 1 to 8 µg/mL (≈ 1.66 to 13.3 µM)
C. albicans; isolate CA90028
  MIC50 C. albicans: ** (** means 1 μg/mL < MIC50 <= 8 μg/mL)
C. auris; Candidozyma auris, isolate DI17-47
  MIC50: 1 to 8 µg/mL (≈ 1.66 to 13.3 µM)
C. auris; isolate DI17-46
  MIC50 C. auris: ** (** means 1 μg/mL < MIC50 <= 8 μg/mL)
C. auris; isolate DI17-48
  MIC50 C. auris: ** (** means 1 μg/mL < MIC50 <= 8 μg/mL)
C. glabrata; isolate 05-62
  MIC50: ≤ 1 µg/mL
C. glabrata; isolate 05-761
  MIC50: ≤ 1 µg/mL
C. glabrata; isolate CG3
  MIC50: ≤ 1 µg/mL
C. guilliiermondii; isolate Cgui1
  MIC50: 1 to 8 µg/mL (≈ 1.66 to 13.3 µM)
C. guilliiermondii; isolate Cgui2
  MIC50 C. guilliiermondii: ** (** means 1 μg/mL < MIC50 <= 8 μg/mL)
C. guilliiermondii; isolate Cgui3
  MIC50 C. guilliiermondii: ** (** means 1 μg/mL < MIC50 <= 8 μg/mL)
[4]
  % Normalised Fluorescence with gDNA: 13%
[5]
  % Normalised Fluorescence with polyAU RNA: 17%
